In patent US20220331303A1, “USE OF AN OREXIN 2 RECEPTOR AGONIST FOR THE TREATMENT OF EXCESSIVE SLEEPINESS” (Takeda Pharmaceutical Company Limited, priority 2019, published 2022):
Where two headings read alike, the source gives them in different places.

Legend:
Type in all cases: in vivo, human
[1] = Single-dose plasma PK of Compound A in subjects with OSA; conditions: for half-life: read-out: t½, z (converted)
Procedure: The treatment periods began on Day 1 of Treatment Period 1 (Study Day 1) with Treatment Periods 2 and 3 commencing on Study Days 3 and 5, respectively. In the morning of Day 1 of Treatment Period 1, eligible subjects were randomized to 1 of the 6 sequence groups as listed in Table 36. After randomization, the subject was dosed in 3 treatment periods according to the order defined by the sequence group to which he/she was randomized. On Day 1 of each treatment period, Compound A or placebo was administered as a single 9-hour IV infusion commencing at approximately 08:00. The infusion was terminated at approximately 17:00. On Day 1 of each treatment period, four 40-minute maintenance of wakefulness test (MWT) sessions was performed at 2, 4, 6, and 8 hours after the start of the infusion. Subjects were required to stay awake in between the MWT sessions.
On Day 1 of Treatment Period 1, all eligible subjects were randomized and received the first dose of study drug. Compound A or placebo was administered as a single 9-hour IV infusion commencing at approximately 08:00. On each dosing day (Study Days 1, 3, and 5), 40-minute MWT sessions were performed at 2, 4, 6, and 8 hours after the start of the infusion. There was a minimum 24-hour washout interval between the end of the infusion and the commencement of treatment in subsequent treatment periods to allow for complete elimination of the preceding treatment effect. The KSS and PVT were collected per the Schedule of Study Procedures. Blood samples for determination of Compound A plasma concentrations were collected predose and at specified time points postdose, Safety assessments were recorded. During the study, AEs were recorded, clinical laboratory tests, vital signs, and safety ECGs were obtained. Study Days 2, 4, and 6 were washout days. Subjects were discharged from the unit following completion of study exit procedures in the afternoon of Study Day 6 (Day 2 of Treatment Period 3). Subjects were contacted by telephone approximately 7 days (±2 days) following unit discharge for a safety check.
Blood samples used for PK analysis of Compound A was collected according to Table 38.

[2] = test system: patients with NT2; assay: Epworth Sleepiness Scale (ESS) in patients with NT2; parameters: scale not given here; conditions: Day 7
Procedure: (§1) The purpose of the study was to evaluate the safety, tolerability, pharmacokinetics and pharmacodynamics of Compound A after multiple days of IV administration in patients with NT2. NT2 patients were evaluated in Cohort C1 and C2 (Table 30). Compound A or placebo were administered via IV infusion over 9 hours once daily for 7 days. A total of 14 patients with NT2 were treated with Compound A or placebo (5, 4, and 5 subjects in the placebo, Compound A 44 mg, and Compound A 112 mg groups, respectively). In this part, potential efficacy of Compound A was evaluated with MWT, ESS, KSS, night-time PSG (NPSG), and PGI-C as an exploratory PD assessment.

[3] = test system: patients with NT2; assay: MWT in patients with NT2 (Cohorts C1, C2)
Procedure: as §1
An overview of study schedule and PD testing in NT2 Patients is illustrated in FIG. 9. After screening, patients eligible for these parts had to discontinue any medication for narcolepsy including medications used for EDS or cataplexy. The medications had to be stopped for a minimum of 7 days or at least 5 half-lives of each medication, whichever was longer, before the first day of dosing (Day 1). In all cohorts of these parts, subjects underwent NPSG on Day −2 and baseline MWT sessions 4 times on Day −1 (at around 10:00, 12:00, 14:00, and 16:00). Study drug dosing via IV infusion was started at around 08:00 on Days 1-7. MWT was conducted on Day 1 at around 10:00, 12:00, 14:00, and 16:00. Subjects were allowed to take a nap on the days with no MWT assessment. At night of Day 6, the subjects underwent NPSG once again to evaluate the effect of multiple daytime dosing on night-time sleep structure. On Day 7, the subjects underwent MWT at the same hours as on Day −1. The subjects were discharged from the study site on Day 8.
The MWT is a validated objective measure that evaluates a person's ability to remain awake under soporific conditions for a defined period of time. As there is no biological measure of wakefulness, this was measured indirectly by the inability or delayed tendency to fall asleep. This tendency to fall asleep was measured via EEG-derived sleep latency in MWT.
On Day −1, Day 1 and Day 7, 40-minute session (1 session) of MWTs was performed 4 times (approximately at 10:00, 12:00, 14:00, and 16:00) per day. Sleep latency of each session was recorded. Subjects were required to stay awake during an interval between sessions.

[4] = human, intravenous, 44 mg single dose, subjects with OSA, plasma, mean (PK set)
[5] = human, intravenous, 112 mg single dose, subjects with OSA, plasma, mean (PK set)

Q: Which “Plasma Concentration Mean” value ([1]; 44 mg, 0 h After Start of Infusion) does the source give for COC(=O)N1CCC[C@H](NS(C)(=O)=O)[C@@H]1CO[C@H]1CC[C@@H](c2ccccc2)CC1 [Compound A, methyl (2R,3S)-3-((methylsulfonyl)amino)-2-(((cis-4-phenylcyclohexyl)oxy)methyl)piperidine-1-carboxylate] here?
A: BLQ

Q: And the “Plasma Concentration Mean” value ([1]; 44 mg, 0.17 h From End of Infusion)?
A: 53.69 ng/mL

Q: What about the “Plasma Concentration Mean” value ([1]; 44 mg, 1 h After Start of Infusion) of the same compound?
A: 59.80 ng/mL

Q: What about the “Plasma Concentration Mean” value ([1]; 44 mg, 1 h From End of Infusion) of the same compound?
A: 29.90 ng/mL

Q: What about the “Plasma Concentration Mean” value ([1]; 44 mg, 3 h After Start of Infusion) of the same compound?
A: 92.43 ng/mL

Q: What about the “Plasma Concentration Mean” value ([1]; 44 mg, 4 h From End of Infusion) of the same compound?
A: 15.22 ng/mL

Q: What about the “Plasma Concentration Mean” value ([1]; 44 mg, 5 h After Start of Infusion) of the same compound?
A: 101.7 ng/mL

Q: And the “Plasma Concentration Mean” value ([1]; 44 mg, 7 h After Start of Infusion)?
A: 86.37 ng/mL

Q: And the “Plasma Concentration Mean” value ([1]; 44 mg, 9 h After Start of Infusion)?
A: 90.42 ng/mL

Q: What about the “Plasma Concentration Mean” value ([1]; 44 mg, 15 h From End of Infusion (24 hours from start of infusion)) of the same compound?
A: 2.462 ng/mL

Q: And the Ceoi ([1]; 112 mg single dose, subjects with OSA, plasma, mean (PK set))?
A: 211.6 ng/mL

Q: And the “Plasma Concentration Mean” value ([1]; 112 mg, 0 h After Start of Infusion)?
A: BLQ

Q: What about the “Plasma Concentration Mean” value ([1]; 112 mg, 0.17 h From End of Infusion) of the same compound?
A: 139.3 ng/mL

Q: What about the “Plasma Concentration Mean” value ([1]; 112 mg, 1 h After Start of Infusion) of the same compound?
A: 162.9 ng/mL

Q: What about the “Plasma Concentration Mean” value ([1]; 112 mg, 1 h From End of Infusion) of the same compound?
A: 77.87 ng/mL

Q: And the “Plasma Concentration Mean” value ([1]; 112 mg, 3 h After Start of Infusion)?
A: 208.7 ng/mL

Q: And the “Plasma Concentration Mean” value ([1]; 112 mg, 4 h From End of Infusion)?
A: 34.12 ng/mL

Q: And the “Plasma Concentration Mean” value ([1]; 112 mg, 5 h After Start of Infusion)?
A: 222.3 ng/mL

Q: What about the “Plasma Concentration Mean” value ([1]; 112 mg, 7 h After Start of Infusion) of the same compound?
A: 208.9 ng/mL

Q: What about the “Plasma Concentration Mean” value ([1]; 112 mg, 9 h After Start of Infusion) of the same compound?
A: 211.6 ng/mL

Q: What about the “Plasma Concentration Mean” value ([1]; 112 mg, 15 h From End of Infusion (24 hours from start of infusion)) of the same compound?
A: 5.962 ng/mL

Q: And the AUC(0-inf) [1, 4]?
A: 899 ng·h/mL

Q: What about the AUC(0-t) [1, 4] of the same compound?
A: 884 ng·h/mL

Q: And the Cmax [1, 4]?
A: 102 ng/mL

Q: What about the clearance [1, 4] of the same compound?
A: 860 mL/min

Q: And the concentration at 9 h ([1]; human, intravenous, 44 mg single dose, subjects with OSA, plasma, mean (PK set), read-out: Ceoi)?
A: 90.4 ng/mL

Q: What about the half-life [1, 4] of the same compound?
A: 3.79 h

Q: What about the AUC(0-inf) [1, 5] of the same compound?
A: 2060 ng·h/mL

Q: What about the AUC(0-t) [1, 5] of the same compound?
A: 2040 ng·h/mL

Q: What about the Cmax [1, 5] of the same compound?
A: 230 ng/mL

Q: And the clearance [1, 5]?
A: 954 mL/min

Q: And the half-life [1, 5]?
A: 3.93 h

Q: And the Vd ([1]; human, plasma, intravenous, 44 mg, 44 mg single dose, subjects with OSA, plasma, mean (PK set), read-out: Vss)?
A: 129 L

Q: And the Vd ([1]; human, plasma, intravenous, 44 mg, 44 mg single dose, subjects with OSA, plasma, mean (PK set), read-out: Vz)?
A: 278 L

Q: And the Vd ([1]; human, plasma, intravenous, 112 mg, 112 mg single dose, subjects with OSA, plasma, mean (PK set), read-out: Vss)?
A: 139 L

Q: And the Vd ([1]; human, plasma, intravenous, 112 mg, 112 mg single dose, subjects with OSA, plasma, mean (PK set), read-out: Vz)?
A: 319 L

Q: And the “ESS Change from Baseline Mean” value ([2]; Compound A 44 mg)?
A: −3.8

Q: What about the “ESS Change from Baseline Median” value ([2]; Compound A 44 mg) of the same compound?
A: −3.5

Q: And the “ESS Observed Value Mean” value ([2]; Compound A 44 mg)?
A: 13.3

Q: And the “ESS Observed Value Median” value ([2]; Compound A 44 mg)?
A: 14.0

Q: What about the “Mean ESS score” value ([2]; Compound A 44 mg) of the same compound?
A: 13.3

Q: And the “Mean change from baseline in ESS” value ([2]; Compound A 44 mg)?
A: −3.8

Q: What about the “ESS Change from Baseline Mean” value ([2]; Compound A 112 mg) of the same compound?
A: −12.2

Q: What about the “ESS Change from Baseline Median” value ([2]; Compound A 112 mg) of the same compound?
A: −13.0

Q: And the “ESS Observed Value Mean” value ([2]; Compound A 112 mg)?
A: 6.0

Q: And the “ESS Observed Value Median” value ([2]; Compound A 112 mg)?
A: 4.0

Q: What about the “Mean ESS score” value ([2]; Compound A 112 mg) of the same compound?
A: 6.0

Q: What about the “Mean change from baseline in ESS” value ([2]; Compound A 112 mg) of the same compound?
A: −12.2

Q: And the “Mean change from baseline in average sleep latency in MWT” value (from here on “Mean change from baseline … in MWT”) ([3]; Compound A 44 mg, Day 1)?
A: 23.88 min

Q: And the “Mean sleep latency in MWT” value ([3]; Compound A 44 mg, Day 1)?
A: 33.03 min

Q: What about the “Mean change from baseline … in MWT” value ([3]; Compound A 44 mg, Day 7) of the same compound?
A: 25.79 min

Q: What about the “Mean sleep latency in MWT” value ([3]; Compound A 44 mg, Day 7) of the same compound?
A: 34.47 min

Q: And the “Maximum sleep latency achieved in MWT” value ([3]; Compound A 44 mg, at 2 and 8 hours on Day 1 and at 4 and 8 hours on Day 7)?
A: 40 min

Q: What about the “Mean change from baseline … in MWT” value ([3]; Compound A 112 mg, Day 1) of the same compound?
A: 31.15 min

Q: What about the “Mean sleep latency in MWT” value ([3]; Compound A 112 mg, Day 1) of the same compound?
A: 38.48 min

Q: What about the “Mean change from baseline … in MWT” value ([3]; Compound A 112 mg, Day 7) of the same compound?
A: 28.28 min

Q: And the “Mean sleep latency in MWT” value ([3]; Compound A 112 mg, Day 7)?
A: 35.60 min

Q: And the “Maximum sleep latency achieved in MWT” value ([3]; Compound A 112 mg, at 2, 4, and 8 hours both on Day 1 and Day 7)?
A: 40 min
